Structures can show the parent of a compound that is named as a salt. Blank lines part the entries; values can stand above or below the molecule they belong to.
Assays:
Type in all cases: physicochemical
[1] = Cumulative release of paracetamol, FITC-dextran and FITC-BSA from directly loaded C16 films; settings: for Release from C16 films (in words): 0.01 M PBS buffer pH 7.4, 37° C.
Method: Paracetamol: Before casting the C16 films, paracetamol was added and dissolved directly in 2.5% C16 protein solution. The resulting films contained each 2.5 mg of paracetamol. Three film samples containing paracetamol were incubated in 0.01 M PBS buffer pH 7.4 at 37° C. At predetermined time points, the buffer was removed and replaced with fresh medium. The release buffer was analyzed by NanoDrop 2000 (peqlab, Erlanger, Germany). […] Each film contained 1.3 mg of FITC-BSA or FD. Films containing the model drugs (n=3) were incubated in 0.01 M PBS buffer pH 7.4 at 37° C. At predetermined time points the buffer was removed and replaced with fresh medium. The release buffer was analyzed using the fluorescence spectrophotometer Cary Eclipse Varian (Agilent technology, Böblingen, Germany) applying an excitation wavelength of 490 nm and an emission of 520 nm. The drug which was not released was quantified by dissolving the film matrix in a 6 M GdmSCN solution. This solution was subsequently analyzed using a fluorescence spectrophotometer.
A) Spray-dried C16 proteins were dissolved in 6 M guanidinium thiocyanate and subsequently dialyzed against 5 mM Tris/HCl buffer, pH 8 at 4° C. The pH was measured using a pH meter. The protein solution was centrifuged at 10000 rpm for 15 min and filtered through a 0.45 μm cellulose acetate filter. The protein concentration was determined photometrically. The protein solution was finally diluted with Tris buffer to 2.5% w/v. Before casting the films, paracetamol was added and dissolved directly in the protein solution. Films (2.5×3 cm) were cast on the plastic foil A5 22/5B from mtv-messtechnik (Koeln, Germany) and dried in a laminar flow cabinet at room temperature overnight at 45% relative humidity. The resulting films contained 2.5 mg of drug. Three film samples containing paracetamol were incubated in 0.01 M PBS buffer, pH 7.4 at 37° C. At predetermined time points, the buffer was removed and replaced with fresh medium. The release buffer was analysed using a UV-Vis spectrophotometer.
Films were cast as described above. Every film contained 25 mg of C16 and 1.3 mg of FITC-BSA or FD, respectively. Films containing the substances were incubated in 0.01 M PBS buffer, pH 7.4 at 37° C. At predetermined time points, the buffer was removed and replaced with fresh medium. The release buffer was analysed using a fluorescence spectrophotometer applying an excitation wavelength of 490 nm and an emission of 520 nm. The substance which was not released was quantified by dissolving the film matrix in a 6M GdmSCN solution. This solution was subsequently analysed using a fluorescence spectrophotometer. The sum of the non-released substance and the released amount of substance was calculated as 100%. […] After direct loading with FITC-BSA, C16 films released almost 65% of the model protein within one week. […] The cumulative release of paracetamol, FITC-dextran 21 kDa (FD) and FITC-BSA from C16 films casted from an aqueous solution is shown in FIG. 6.

C16 films = experiment: Remote loading of drugs and model protein lysozyme into C16 films; settings: 30 min, room temperature
Method: Loading efficiency and loading were determinate for lysozyme dissolved in high purified water (HPW). For the remote loading of lysozyme, the loading solution was prepared dissolving 1% w/v lysozyme in high purified water. Three different films were weighted, following by incubation in a 6-well plate with 5 ml of the loading solution at room temperature, at 2 rpm. After 30 min, films were removed and the loading solution was diluted 1:20 and analysed photometrically at 280 nm recording its spectra using a spectrophotometer (Agilent Technologies 8453, Oberhaching, Germany). A calibration curve was prepared using the original lysozyme solution. The same method was performed using as incubation medium of 0.5% and 0.25% of lysozyme.
A) Low molecular weight drugs (tetracain hydrochloride, ethacridine monohydrate lactate, nipagin and phenol red) were dissolved at a concentration of 0.5 mg/ml in highly purified water (HPW), Tris 5 mM pH 7, and formate buffer 5 mM, pH 3, respectively. After dissolving the drugs, all solutions were filtered through a 0.45 μm cellulose acetate filter.
For the remote loading process, the previously cast C16 films were cut into pieces, weighed and placed into 24-well plates. At least four C16 film samples were incubated with 1 ml of each drug solutions for 30 min at gently agitation of 2 rpm at room temperature. After removing the C16 films, the quantities of the loaded drugs were calculated indirectly by measuring the remaining loading solutions photometrically. Finally, the loading and the loading-efficiency for each experimental condition were calculated (see Table 1).
For the remote loading of the model protein lysozyme, the loading solution was prepared by dissolving 1% w/v lysozyme in HPW. As before, three different C16 films were weighed. Afterwards, C16 films were incubated in a 6-well plate with 5 ml of the loading solution at gently agitation of 2 rpm at room temperature. After 30 min, C16 films were removed and the loading solution was analysed photometrically at 280 nm. Spectra were recorded using a spectrophotometer. At physiological pH, spider silk films are negatively charged.
B) For the remote loading of Lysozyme, the loading solution was prepared dissolving 1% w/v lysozyme in high purified water (HPW). Three different C16 films were weighted, followed by incubation in a 6-well plate with 5 ml of the loading solution at gently agitation of 2 rpm at room temperature. After 30 min, C16 films were removed and the loading solution was diluted 1:20 and analyzed photometrically at 280 nm. In particular, a spectra of this solution was subsequently recorded using a spectrophotometer (Agilent Technologies 8453, Oberhaching, Germany). A calibration curve was prepared using the original lysozyme solution. The same method was performed using an incubation medium with 0.5% and 0.25% of Lysozyme.

[2] = Isoelectric point (pI) of spider silk polypeptides
[3] = HPW (highly purified water), LMW drugs 0.5 mg/ml, lysozyme 1% w/v
[4] = pH 3 (formate buffer 5 mM), drug 0.5 mg/ml
[5] = pH 7 (Tris 5 mM), drug 0.5 mg/ml

- Release from C16 films (in words) ([1]; direct loading): completely release
Molecule: CC(=O)Nc1ccc(O)cc1 [paracetamol]

- Loading (L) (C16 films; [3]): 3.8 ± 1.9%
- Loading efficiency (LE) (C16 films; [3]): 35.1 ± 8.3%
- Loading (L) (C16 films; [4]): 0.0 ± 0.0%
- Loading efficiency (LE) (C16 films; [4]): 0.0 ± 0.0%
- Loading (L) (C16 films; [5]): 2.5 ± 07%
- Loading efficiency (LE) (C16 films; [5]): 24.3 ± 7.7%
Molecule: CCCCNc1ccc(C(=O)OCCN(C)C)cc1 [Tetracaine HCl, tetracain hydrochloride]

- Loading (L) (C16 films; [3]): 0.8 ± 0.3%
- Loading efficiency (LE) (C16 films; [3]): 9.6 ± 4.3%
- Loading (L) (C16 films; [4]): 0.5 ± 0.2%
- Loading efficiency (LE) (C16 films; [4]): 5.3 ± 2.3%
- Loading (L) (C16 films; [5]): 0.0 ± 0.0%
- Loading efficiency (LE) (C16 films; [5]): 0.0 ± 0.0%
Molecule: COC(=O)c1ccc(O)cc1 [Nipagin, nipagin]

More lines, now with the values behind:

Molecule: Lysozyme: model protein, positively charged at physiological pH
- Loading (L) (C16 films; [3]): 39.8 ± 1.8%
- Loading efficiency (LE) (C16 films; [3]): 22.8 ± 0.7%

Molecule: CC(O)C(=O)O.CCOc1ccc2nc3cc(N)ccc3c(N)c2c1.O [Ethacridine lact., ethacridine monohydrate lactate]
- Loading (L) (C16 films; [3]): 3.3 ± 0.3%
- Loading efficiency (LE) (C16 films; [3]): 54.2 ± 3.2%
- Loading (L) (C16 films; [4]): 2.4 ± 0.5%
- Loading efficiency (LE) (C16 films; [4]): 16.5 ± 5.4%
- Loading (L) (C16 films; [5]): 3.5 ± 1.0%
- Loading efficiency (LE) (C16 films; [5]): 45.8 ± 2.7%

Molecule: FITC-BSA: FITC-BSA (MW 66.5 kDa), model drug / model protein
- Release after the burst (in words) ([1]; after day 1, 0.01 M PBS pH 7.4, 37° C.): constant amount per day
- Release from C16 films (in words) ([1]; direct loading): slower
- Burst release from C16 films ([1]; on day 1, direct loading, 0.01 M PBS pH 7.4, 37° C.): approx. 30%
- Cumulative release from C16 films ([1]; within one week, direct loading, 0.01 M PBS pH 7.4, 37° C.): ~65%

B1: C16: silk polypeptide which comprises 16 repeats of the sequence of module C (SEQ ID NO: 21) (protein)
chain: GSSAAAAAAAASGPGGYGPENQGPSGPGGYGPGGPGSSAAAAAAAASGPGGYGPENQGPSGPGGYGPGGPGSSAAAAAAAASGPGGYGPENQGPSGPGGYGPGGPGSSAAAAAAAASGPGGYGPENQGPSGPGGYGPGGPGSSAAAAAAAASGPGGYGPENQGPSGPGGYGPGGPGSSAAAAAAAASGPGGYGPENQGPSGPGGYGPGGPGSSAAAAAAAASGPGGYGPENQGPSGPGGYGPGGPGSSAAAAAAAASGPGGYGPENQGPSGPGGYGPGGPGSSAAAAAAAASGPGGYGPENQGPSGPGGYGPGGPGSSAAAAAAAASGPGGYGPENQGPSGPGGYGPGGPGSSAAAAAAAASGPGGYGPENQGPSGPGGYGPGGPGSSAAAAAAAASGPGGYGPENQGPSGPGGYGPGGPGSSAAAAAAAASGPGGYGPENQGPSGPGGYGPGGPGSSAAAAAAAASGPGGYGPENQGPSGPGGYGPGGPGSSAAAAAAAASGPGGYGPENQGPSGPGGYGPGGPGSSAAAAAAAASGPGGYGPENQGPSGPGGYGPGGP
- pI [2]: 3.48
